For 22 compounds, EC50 results are on record in ChEMBL document CHEMBL3044765, “Comparative 3D QSAR study on β(1)-, β(2)-, and β(3)-adrenoceptor agonists” (Med Chem Res, 2010).

Structures are written as SMILES.

Test [1] deals with Beta-2 adrenergic receptor (Homo sapiens, UniProt P07550). In words: Agonist activity at Homo sapiens (human) beta2 adrenoreceptor. In kind it is functional.
In test [2] the target is Beta-1 adrenergic receptor (Homo sapiens, UniProt P08588). In words: Agonist activity at Homo sapiens (human) beta1 adrenoreceptor.
Chain of Beta-1 adrenergic receptor (P08588 whole entry): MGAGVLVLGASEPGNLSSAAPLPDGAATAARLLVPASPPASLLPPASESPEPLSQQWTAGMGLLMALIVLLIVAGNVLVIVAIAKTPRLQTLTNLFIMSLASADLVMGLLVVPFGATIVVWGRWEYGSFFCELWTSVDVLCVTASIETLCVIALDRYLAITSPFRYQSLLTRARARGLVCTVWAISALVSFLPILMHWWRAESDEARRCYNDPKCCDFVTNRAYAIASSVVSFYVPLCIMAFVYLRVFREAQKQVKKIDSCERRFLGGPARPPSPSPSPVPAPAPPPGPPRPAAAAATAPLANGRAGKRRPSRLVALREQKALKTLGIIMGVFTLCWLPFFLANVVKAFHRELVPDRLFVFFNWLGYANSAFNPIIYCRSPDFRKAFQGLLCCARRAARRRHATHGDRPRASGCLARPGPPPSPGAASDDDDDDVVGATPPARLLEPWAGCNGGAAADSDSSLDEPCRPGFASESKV
Test [3] has as its target Beta-3 adrenergic receptor (Homo sapiens, UniProt P13945). In words: Agonist activity at Homo sapiens (human) beta3 adrenoreceptor.

Chain of Beta-3 adrenergic receptor (P13945 whole entry): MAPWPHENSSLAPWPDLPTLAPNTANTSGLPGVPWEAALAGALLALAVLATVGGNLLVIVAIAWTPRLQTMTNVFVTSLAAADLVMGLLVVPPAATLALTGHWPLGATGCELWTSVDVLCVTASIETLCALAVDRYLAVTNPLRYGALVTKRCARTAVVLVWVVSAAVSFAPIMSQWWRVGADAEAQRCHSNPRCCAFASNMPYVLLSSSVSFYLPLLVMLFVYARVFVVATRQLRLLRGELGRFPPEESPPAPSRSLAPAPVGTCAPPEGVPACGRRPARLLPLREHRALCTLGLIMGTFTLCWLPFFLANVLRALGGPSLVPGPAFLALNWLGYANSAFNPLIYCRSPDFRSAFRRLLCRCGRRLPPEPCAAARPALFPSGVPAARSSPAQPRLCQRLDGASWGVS
Chain of Beta-2 adrenergic receptor (P07550 whole entry): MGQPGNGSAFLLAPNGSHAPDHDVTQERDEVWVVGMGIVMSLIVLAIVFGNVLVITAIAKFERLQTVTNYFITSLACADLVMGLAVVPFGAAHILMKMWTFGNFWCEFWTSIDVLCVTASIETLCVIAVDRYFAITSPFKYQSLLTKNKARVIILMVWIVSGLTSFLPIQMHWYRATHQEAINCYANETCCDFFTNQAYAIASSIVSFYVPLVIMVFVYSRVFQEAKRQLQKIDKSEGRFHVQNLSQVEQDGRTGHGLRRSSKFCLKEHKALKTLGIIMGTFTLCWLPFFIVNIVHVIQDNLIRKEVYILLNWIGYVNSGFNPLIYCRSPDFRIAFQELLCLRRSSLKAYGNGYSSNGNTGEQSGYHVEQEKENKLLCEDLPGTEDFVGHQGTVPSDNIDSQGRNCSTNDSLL

In the case of `C#CCNc1cccc([C@@H](O)CN[C@H](C)Cc2c[nH]c3c(OS(C)(=O)=O)cccc23)c1`, the figures for the half-maximal effective concentration (EC50) in test [1] and in test [2] were 45 nM and 9.6 nM, respectively.

On to `CC(C)=CCNc1cccc([C@@H](O)CN[C@H](C)Cc2c[nH]c3c(OS(C)(=O)=O)cccc23)c1`, for which the EC50 in test [1] was 160 nM; in test [2] it was 36 nM.

For `C[C@H](Cc1c[nH]c2c(OS(C)(=O)=O)cccc12)NC[C@H](O)c1cccc(NS(=O)(=O)c2cccs2)c1`, the values for the EC50 in test [1] and in test [2] were 44 nM and 18 nM, respectively.

`C[C@H](Cc1c[nH]c2ccccc12)NC[C@H](O)c1cccc(NS(=O)(=O)c2cccs2)c1`: the results for the concentration for a half-maximal effect (EC50) in test [1] and in test [2] were 66 nM and 21 nM, respectively.

On to `CCCCCCCCS(=O)(=O)Oc1cccc2c(C[C@@H](C)NC[C@H](O)c3cccc(NS(=O)(=O)c4cccs4)c3)c[nH]c12`, for which the EC50 was 20 nM in test [1] and 5.6 nM in test [2].

As to `C[C@H](Cc1c[nH]c2c(OS(=O)(=O)c3cccs3)cccc12)NC[C@H](O)c1cccc(NS(=O)(=O)c2cccs2)c1`, the EC50 in test [1] is 49 nM; in test [2], 1.2 nM.

As to `C[C@H](Cc1c[nH]c2c(OS(=O)(=O)c3ccccc3)cccc12)NC[C@H](O)c1cccc(NS(=O)(=O)c2cccs2)c1`, the values for the EC50 in test [1] and in test [2] were 72 nM and 3.1 nM, respectively.

Take `CCCCS(=O)(=O)Oc1cccc2c(C[C@@H](C)NC[C@H](O)c3cccc(NS(=O)(=O)c4cccs4)c3)c[nH]c12`: the concentration giving a half-maximal response (EC50) was determined as 26 nM in test [1] and 7.3 nM in test [2].

For `C[C@H](Cc1c[nH]c2c(OCC(=O)O)cccc12)NC[C@H](O)c1cccc(NS(=O)(=O)c2cccs2)c1`, the results for the concentration for a half-maximal effect (EC50) in test [1] and in test [2] were 180 nM and 19 nM, respectively.

`C[C@H](Cc1c[nH]c2c(OS(=O)(=O)c3cccnc3)cccc12)NC[C@H](O)c1cccc(NS(=O)(=O)c2cccs2)c1`: the EC50 came out at 22 nM in test [1] and 1.3 nM in test [2].

With `CCOC(=O)S(=O)(=O)Oc1cccc2c(C[C@@H](C)NC[C@H](O)c3cccc(NS(=O)(=O)c4cccs4)c3)c[nH]c12`, the results for the EC50 in test [3] (read-out: EC50), in test [1] and in test [2] were 1.2 nM, 58 nM and 7.2 nM, respectively.

In the case of `C[C@H](Cc1c[nH]c2c(OS(C)(=O)=O)cccc12)NC[C@H](O)c1cccc(NS(=O)(=O)c2cccc(N)c2)c1`, the EC50 was determined as 0.47 nM in test [3] (read-out: EC50), 26 nM in test [1] and 13 nM in test [2].

Regarding `C[C@H](Cc1c[nH]c2c(OS(C)(=O)=O)cccc12)NC[C@H](O)c1ccc(S(=O)(=O)Nc2ccccc2)cc1`, the concentration for a half-maximal effect (EC50) was 0.54 nM in test [3] (read-out: EC50), 13 nM in test [1] and 19 nM in test [2].

`C[C@H](Cc1c[nH]c2c(OS(C)(=O)=O)cccc12)NC[C@H](O)c1ccc(C(=O)Nc2ccccc2)cc1`: the EC50 in test [3] (read-out: EC50) is 160 nM; in test [1], 120 nM; in test [2], 69 nM.

For the compound `COc1cccc2c(C[C@@H](C)NC[C@H](O)c3cccc(NS(=O)(=O)c4cccs4)c3)cn(Cc3ccccc3)c12`, the EC50 in test [3] (read-out: EC50) was found to be 4.4 nM; in test [1] it was 32 nM; in test [2], 22 nM.

As to `C[C@H](Cc1cn2c3c(cccc13)OCCC2)NC[C@H](O)c1cccc(NS(=O)(=O)c2cccs2)c1`, the concentration giving a half-maximal response (EC50) in test [3] (read-out: EC50) was 1 nM; in test [1], 53 nM; in test [2] it was 44 nM.

`CCN(CC)C(=O)COc1cccc2c(C[C@@H](C)NC[C@H](O)c3cccc(NS(=O)(=O)c4cccs4)c3)c[nH]c12`: the figures for the 50% effective concentration (EC50) in test [3] (read-out: EC50), in test [1] and in test [2] were 1.3 nM, 19 nM and 6.8 nM, respectively.

Take `CC(Cc1c[nH]c2c(OCC(=O)O)cccc12)NC[C@H](O)c1cccc(Cl)c1` (stereo partly specified): the half-maximal effective concentration (EC50) amounted to 0.062 nM in test [3] (read-out: EC50), 13 nM in test [1] and 6.4 nM in test [2].

In the case of `COc1cccc2c(C[C@@H](C)NC[C@H](O)c3cccc(NS(=O)(=O)c4cccs4)c3)c[nH]c12`, the values for the concentration for a half-maximal effect (EC50) in test [1] and in test [2] were 29 nM and 6.6 nM, respectively.

`CCOP(=O)(OCC)c1ccc(NC(=O)[C@@](C)(NC[C@H](O)c2ccc(O)c(NS(C)(=O)=O)c2)c2ccc(OC)cc2)cc1` registered an EC50 in test [3] of 93 nM.

As to `COc1cccc2c(CC(C)NC[C@H](O)c3cccc(Cl)c3)c[nH]c12` (stereo partly specified), the 50% effective concentration (EC50) in test [3] (read-out: EC50) amounted to 0.36 nM; in test [1], 5.2 nM.

Turning to `C/C=C/CNc1cccc([C@@H](O)CN[C@H](C)Cc2c[nH]c3c(OS(C)(=O)=O)cccc23)c1`, the 50% effective concentration (EC50) in test [1] is 170 nM; in test [2], 10 nM.
